Experimental findings from ChEMBL document CHEMBL5523716, “Discovery of novel EGFR-PROTACs capable of degradation of multiple EGFR-mutated proteins” (Eur J Med Chem, 2024) are described below.

Holding throughout (format): functional, cell-based
Assay [1] concerns HCC827. The experiment in a line: Antiproliferative activity against human HCC827 cells harboring EGFR Del19 mutant assessed as inhibition of cell growth incubated for 48 to 72 hrs by CCK-8 assay. In general terms: Tetrazolium assays rely on reduction of a dye to a coloured formazan, in cell work by metabolically active cells.
Assay [2] concerns NCI-H1975. Put plainly: Antiproliferative activity against human NCI-H1975 cells harboring EGFR L858R/T790M double mutant assessed as inhibition of cell growth incubated for 48 to 72 hrs by CCK-8 assay.
The nature of assay [3]: Antiproliferative activity against human H1975-TM cells harboring EGFR L858R/T790M/C797S mutant assessed as inhibition of cell growth incubated for 48 to 72 hrs by CCK-8 assay.
The test system of assay [4] is A-431. The experiment in a line: Antiproliferative activity against human A-431 cells harboring EGFR wild type assessed as inhibition of cell growth incubated for 48 to 72 hrs by CCK-8 assay.
In assay [5] the test system is A549. The experiment in a line: Antiproliferative activity against human A549 cells harboring EGFR wild type assessed as inhibition of cell growth incubated for 48 to 72 hrs by CCK-8 assay.

Regarding `CCN(CC)C/C=C/C(=O)Nc1cc2c(Nc3ccc(F)c(Cl)c3)ncnc2cc1OCCCCCc1cn(CCCCCCCCCCC(=O)N[C@H](C(=O)N2C[C@H](O)C[C@H]2C(=O)NCc2ccc(-c3scnc3C)cc2)C(C)(C)C)nn1`, the IC50 – broadly, the concentration at which inhibition is half-maximal – in assay [1] is 0.01 µM; in assay [2], 3.08 µM; in assay [3], more than 20 µM; in assay [4] it was more than 20 µM; in assay [5] it was more than 20 µM.

Turning to `Cc1ncsc1-c1ccc(CNC(=O)[C@@H]2C[C@@H](O)CN2C(=O)[C@@H](NC(=O)CCCCCCCCCCn2cc(COc3cc4ncnc(Nc5ccc(F)c(Cl)c5)c4cc3NC(=O)/C=C/CN(C)C)nn2)C(C)(C)C)cc1`, the half-inhibitory concentration (IC50) was 0.011 µM in assay [1]; 1.48 µM in assay [2]; more than 20 µM in assay [3]; more than 20 µM in assay [4]; more than 20 µM in assay [5].

As for `CCN(CC)C/C=C/C(=O)Nc1cc2c(Nc3ccc(F)c(Cl)c3)ncnc2cc1OCCCCCc1cn(CCCCCCCC(=O)N[C@H](C(=O)N2C[C@H](O)C[C@H]2C(=O)N[C@H](C)c2ccc(-c3scnc3C)cc2)C(C)(C)C)nn1`, the half-inhibitory concentration (IC50) in assay [1] is 0.03 µM; in assay [2] it was 0.96 µM; in assay [3], more than 20 µM; in assay [4], more than 20 µM; in assay [5] it was more than 20 µM.

`Cc1ncsc1-c1ccc(CNC(=O)[C@@H]2C[C@@H](O)CN2C(=O)[C@@H](NC(=O)CCCCCCCCCCn2cc(COc3cc4ncnc(Nc5ccc(F)c(Cl)c5)c4cc3NC(=O)/C=C/CN3CCCCC3)nn2)C(C)(C)C)cc1`: the IC50 is 0.006 µM in assay [1]; more than 20 µM in assay [2]; more than 20 µM in assay [3]; more than 20 µM in assay [4]; more than 20 µM in assay [5].

Regarding `Cc1ncsc1-c1ccc(CNC(=O)[C@@H]2C[C@@H](O)CN2C(=O)[C@@H](NC(=O)CCCCCCCCCn2cc(CCCCCOc3cc4ncnc(Nc5ccc(F)c(Cl)c5)c4cc3NC(=O)/C=C/CN3CCCCC3)nn2)C(C)(C)C)cc1`, the concentration for half-maximal inhibition (IC50) in assay [1] was 0.018 µM; in assay [2], 9.44 µM; in assay [3], more than 20 µM; in assay [4], more than 20 µM; in assay [5], 9.3 µM.

Turning to `CCN(CC)C/C=C/C(=O)Nc1cc2c(Nc3ccc(F)c(Cl)c3)ncnc2cc1OCCCCCc1cn(CCCCCCCC(=O)N[C@H](C(=O)N2C[C@H](O)C[C@H]2C(=O)NCc2ccc(-c3scnc3C)cc2)C(C)(C)C)nn1`, the IC50 was 0.031 µM in assay [1]; 1.37 µM in assay [2]; more than 20 µM in assay [3]; more than 20 µM in assay [4]; more than 20 µM in assay [5].

With `Cc1ncsc1-c1ccc(CNC(=O)[C@@H]2C[C@@H](O)CN2C(=O)[C@@H](NC(=O)COCCOCCOCCn2cc(CCCCCOc3cc4ncnc(Nc5ccc(F)c(Cl)c5)c4cc3NC(=O)/C=C/CN3CCCCC3)nn2)C(C)(C)C)cc1`, the IC50 in assay [1] was 0.089 µM; in assay [2], 2.28 µM; in assay [3] it was more than 20 µM; in assay [4], more than 20 µM; in assay [5] it was more than 20 µM.

For `Cc1ncsc1-c1ccc(CNC(=O)[C@@H]2C[C@@H](O)CN2C(=O)[C@@H](NC(=O)CCCCCCCCCCn2cc(COc3cc4ncnc(Nc5ccc(F)c(Cl)c5)c4cc3NC(=O)/C=C/CN3CCN(C)CC3)nn2)C(C)(C)C)cc1`, the half-maximal inhibitory concentration (IC50) was 0.038 µM in assay [1]; 14.2 µM in assay [2]; more than 20 µM in assay [3]; more than 20 µM in assay [4]; more than 20 µM in assay [5].

For the compound `CCN(CC)C/C=C/C(=O)Nc1cc2c(Nc3ccc(F)c(Cl)c3)ncnc2cc1OCCCCCc1cn(CCOCCOCC(=O)N[C@H](C(=O)N2C[C@H](O)C[C@H]2C(=O)NCc2ccc(-c3scnc3C)cc2)C(C)(C)C)nn1`, the IC50 in assay [1] was 0.084 µM; in assay [2] it was 2.85 µM; in assay [3] it was more than 20 µM; in assay [4] it was more than 20 µM; in assay [5], more than 20 µM.

For the compound `CCN(CC)C/C=C/C(=O)Nc1cc2c(Nc3ccc(F)c(Cl)c3)ncnc2cc1OCCCCCc1cn(CCCCC(=O)N[C@H](C(=O)N2C[C@H](O)C[C@H]2C(=O)NCc2ccc(-c3scnc3C)cc2)C(C)(C)C)nn1`, the IC50 in assay [1] was 0.059 µM; in assay [2], 3.5 µM; in assay [3], more than 20 µM; in assay [4] it was more than 20 µM; in assay [5], more than 20 µM.

With `Cc1ncsc1-c1ccc(CNC(=O)[C@@H]2C[C@@H](O)CN2C(=O)[C@@H](NC(=O)COCCOCCn2cc(CCCCCOc3cc4ncnc(Nc5ccc(F)c(Cl)c5)c4cc3NC(=O)/C=C/CN3CCCCC3)nn2)C(C)(C)C)cc1`, the IC50 in assay [1] was 0.004 µM; in assay [2] it was 1.93 µM; in assay [3] it was more than 20 µM; in assay [4], more than 20 µM; in assay [5], more than 20 µM.

As to `CCN(CC)C/C=C/C(=O)Nc1cc2c(Nc3ccc(F)c(Cl)c3)ncnc2cc1OCCCCCc1cn(CCCCCCCCCCC(=O)N[C@H](C(=O)N2C[C@H](O)C[C@H]2C(=O)N[C@H](C)c2ccc(-c3scnc3C)cc2)C(C)(C)C)nn1`, the IC50 was 0.01 µM in assay [1]; 5.37 µM in assay [2]; more than 20 µM in assay [3]; more than 20 µM in assay [4]; more than 20 µM in assay [5].

Turning to `Cc1ncsc1-c1ccc(CNC(=O)[C@@H]2C[C@@H](O)CN2C(=O)[C@@H](NC(=O)CCCCn2cc(CCCCCOc3cc4ncnc(Nc5ccc(F)c(Cl)c5)c4cc3NC(=O)/C=C/CN3CCCCC3)nn2)C(C)(C)C)cc1`, the concentration for half-maximal inhibition (IC50) in assay [1] is 0.046 µM; in assay [2] it was 14.7 µM; in assay [3], more than 20 µM; in assay [4], more than 20 µM; in assay [5], more than 20 µM.

Turning to `Cc1ncsc1-c1ccc(CNC(=O)[C@@H]2C[C@@H](O)CN2C(=O)[C@@H](NC(=O)CCCCCCCn2cc(COCCOCCOCCOc3cc4ncnc(Nc5ccc(F)c(Cl)c5)c4cc3NC(=O)/C=C/CN3CCCCC3)nn2)C(C)(C)C)cc1`, the half-maximal inhibitory concentration (IC50) in assay [1] was 0.043 µM; in assay [2], 2.55 µM; in assay [3], more than 20 µM; in assay [4], 11.4 µM; in assay [5], more than 20 µM.

With `Cc1ncsc1-c1ccc(CNC(=O)[C@@H]2C[C@@H](O)CN2C(=O)[C@@H](NC(=O)CCCCCCCCCCn2cc(COc3cc4ncnc(Nc5ccc(F)c(Cl)c5)c4cc3NC(=O)/C=C/CN3CCOCC3)nn2)C(C)(C)C)cc1`, the 50% inhibitory concentration (IC50) was 0.019 µM in assay [1]; more than 20 µM in assay [2]; more than 20 µM in assay [3]; more than 20 µM in assay [4]; more than 20 µM in assay [5].

In the case of `Cc1ncsc1-c1ccc(CNC(=O)[C@@H]2C[C@@H](O)CN2C(=O)[C@@H](NC(=O)CCCCCCCCCCn2cc(COCCOCCOCCOc3cc4ncnc(Nc5ccc(F)c(Cl)c5)c4cc3NC(=O)/C=C/CN3CCCCC3)nn2)C(C)(C)C)cc1`, the IC50 in assay [1] is 0.015 µM; in assay [2] it was 2.36 µM; in assay [3], more than 20 µM; in assay [4], 11.5 µM; in assay [5] it was more than 20 µM.

Regarding `Cc1ncsc1-c1ccc(CNC(=O)[C@@H]2C[C@@H](O)CN2C(=O)[C@@H](NC(=O)CCCCn2cc(COCCOCCOCCOc3cc4ncnc(Nc5ccc(F)c(Cl)c5)c4cc3NC(=O)/C=C/CN3CCCCC3)nn2)C(C)(C)C)cc1`, the IC50 in assay [1] was 0.05 µM; in assay [2], 4.96 µM; in assay [3] it was more than 20 µM; in assay [4], more than 20 µM; in assay [5], more than 20 µM.

Take `Cc1ncsc1-c1ccc(CNC(=O)[C@@H]2C[C@@H](O)CN2C(=O)[C@@H](NC(=O)COCCn2cc(CCCCCOc3cc4ncnc(Nc5ccc(F)c(Cl)c5)c4cc3NC(=O)/C=C/CN3CCCCC3)nn2)C(C)(C)C)cc1`: the half-maximal inhibitory concentration (IC50) was 0.169 µM in assay [1]; 14.3 µM in assay [2]; more than 20 µM in assay [3]; more than 20 µM in assay [4]; more than 20 µM in assay [5].

Consider `CCN(CC)C/C=C/C(=O)Nc1cc2c(Nc3ccc(F)c(Cl)c3)ncnc2cc1OCCCCCc1cn(CCCCC(=O)N[C@H](C(=O)N2C[C@H](O)C[C@H]2C(=O)N[C@H](C)c2ccc(-c3scnc3C)cc2)C(C)(C)C)nn1`, for which the IC50 is 0.054 µM in assay [1]; 1.86 µM in assay [2]; more than 20 µM in assay [3]; more than 20 µM in assay [4]; more than 20 µM in assay [5].

In the case of `Cc1ncsc1-c1ccc(CNC(=O)[C@@H]2C[C@@H](O)CN2C(=O)[C@@H](NC(=O)CCCCCCCCCCn2cc(CCCCCOc3cc4ncnc(Nc5ccc(F)c(Cl)c5)c4cc3NC(=O)/C=C/CN3CCCCC3)nn2)C(C)(C)C)cc1`, the IC50 was 0.027 µM in assay [1]; more than 20 µM in assay [2]; more than 20 µM in assay [3]; more than 20 µM in assay [4]; more than 20 µM in assay [5].

For the compound `Cc1ncsc1-c1ccc(CNC(=O)[C@@H]2C[C@@H](O)CN2C(=O)[C@@H](NC(=O)CCCCCCCn2cc(CCCCCOc3cc4ncnc(Nc5ccc(F)c(Cl)c5)c4cc3NC(=O)/C=C/CN3CCCCC3)nn2)C(C)(C)C)cc1`, the half-inhibitory concentration (IC50) in assay [1] was 0.053 µM; in assay [2], 5.82 µM; in assay [3], more than 20 µM; in assay [4], more than 20 µM; in assay [5] it was more than 20 µM.

Take `CCN(CC)C/C=C/C(=O)Nc1cc2c(Nc3ccc(F)c(Cl)c3)ncnc2cc1OCc1cn(CCCCC(=O)N[C@H](C(=O)N2C[C@H](O)C[C@H]2C(=O)N[C@H](C)c2ccc(-c3scnc3C)cc2)C(C)(C)C)nn1`: the half-maximal inhibitory concentration (IC50) in assay [1] was 0.039 µM; in assay [2] it was 7.46 µM; in assay [3], more than 20 µM; in assay [4], more than 20 µM; in assay [5] it was more than 20 µM.

For the compound `CCN(CC)C/C=C/C(=O)Nc1cc2c(Nc3ccc(F)c(Cl)c3)ncnc2cc1OCc1cn(CCCCCCCCCCC(=O)N[C@H](C(=O)N2C[C@H](O)C[C@H]2C(=O)N[C@H](C)c2ccc(-c3scnc3C)cc2)C(C)(C)C)nn1`, the IC50 in assay [1] was 0.01 µM; in assay [2] it was 0.69 µM; in assay [3] it was more than 20 µM; in assay [4] it was more than 20 µM; in assay [5] it was more than 20 µM.
